In patent US5112833A, “1-azaindolizine derivatives, synthetic intermediates thereof and antiallergic agents containing 1-azaindolizine derivatives” (Zenyaku Kogyo Kabushiki Kaisha, priority 1988, dated 1992) one finds inhibition in vivo and LD50 data, which are given here for 18 compounds.

Structures can show the parent of a compound that is named as a salt.

Data set [1] has as its system homologous passive cutaneous anaphylaxis (PCA) reaction. Briefly: Inhibition of homologous passive cutaneous anaphylaxis (PCA) reaction. In kind it is in vivo, male Wistar rats. Conditions: Rattus norvegicus, 0.5 h, rats, read-out: Inhibition (%) of leaked amount of dye in PCA reaction; for inhibition in vivo at 20 mg/kg: intravenous, immediately before ovalbumin challenge, *P < 0.02, **P < 0.005. On the procedure:
The antiallergic action of the compounds of the present invention obtained by the above-mentioned preparation process was examining by the following inhibition test of homologous passive cutaneous anaphylaxis (PCA) reaction on rats.
Antiserum was obtained from rats that were immunized with ovalbumin according to the method of Mota [Immunology, 7, 681-699 (1964)]. The antiserum was diluted with physiological saline to make PCA reaction of approximately 10-15 mm in diameter. Groups of 5 male Wistar rats, 8 weeks old and weighing between 200-250 g, were passively sensitized with 0.1 ml of the diluted antiserum injected intradermally in the shaved area on the back. Fourty-eight hours after the sensitization, each above sample dissolved into physiological saline was injected into the rats intravenously via tail vein. Immediately after injection of the sample, rats were challenged with the physiological saline solution containing ovalbumin (25 mg/kg/head) and Evans blue (12.5 mg/kg/head) intravenously via tail vein so as to generate PCA reaction. Thirty minutes after the accomplishment of the challenge, the rats were exsanguinated and removed the skins from the back. The amount of the dye leaked out of the vessels was measured by the method of Katayama et al. [Microbiol. Immunol. 22, 89-101 (1978)].
The effects of samples on PCA reaction were expressed as percentage of inhibition of the leaked amount of the dye calculated by the following equation: [formula] where C is the mean leaked amount of the dye in control group, S is the mean leaked amount of dye in sample treated group. The results of the experiments were shown in Table 1, which included the effect of DSCG used as a positive control.

Data set [2] can be described thus: Acute toxicity test (LD50). Conditions: mouse, in vivo; intravenous via tail vein, male ICR mice, 10 days' observation. Here is the method: Acute toxicity tests of the compounds of the present invention were carried out as described below. Groups of 5 male ICR mice, 5 weeks old and weighing 30±5 g, were used. The samples dissolved in physiological saline were injected intravenously via tail vein of the mice. Each LD50 was determined through 10 days' observation.

Turning to `O=C(O)c1cc(=O)c2c(OCC(O)COc3cccc4oc(C(=O)O)cc(=O)c34)cccc2o1` [DSCG, disodium chromoglycate, reference compound], in data set [1] (iv, 10 mg/kg, positive control, **P < 0.005), the inhibition in vivo at 10 mg/kg is 75%.

With `COc1nc2ccc(C)cn2c1C=C(C#N)C(=O)O` [Sample 1, Sodium salt of 3-(2-carboxy-2-cyanovinyl)-2-methoxy-6-methylimidazo[1,2-a]pyridine], the inhibition in vivo at 20 mg/kg in data set [1] amounted to 52.6%.

In the case of `Cc1cccn2c(C=C(C#N)C(=O)O)c(OC(C)C)nc12` [Sample 2, Sodium salt of 3-(2-carboxy-2-cyanovinyl)-2-isopropoxy-8-methylimidazo[1,2-a]pyridine], in data set [1], the inhibition in vivo at 20 mg/kg stood at 68.4%. Moreover, the median lethal dose (LD50) at 240 h in data set [2] was about 150 mg/kg.

Turning to `COc1cccn2c(C=C(C#N)C(=O)O)c(OC(C)C)nc12` [Sample 3, Sodium salt of 3-(2-carboxy-2-cyanovinyl)-2-isopropoxy-8-methoxyimidazo[1,2-a]pyridine], the inhibition in vivo at 20 mg/kg in data set [1] came to 90%. In data set [2], this compound gave an LD50 at 240 h of about 350 mg/kg.

With `CCOc1cccn2c(C=C(C#N)C(=O)O)c(OC(C)C)nc12` [Sample 4, Sodium salt of 3-(2-carboxy-2-cyanovinyl)-8-ethoxy-2-isopropoxyimidazo[1,2-a]pyridine], the inhibition in vivo at 20 mg/kg in data set [1] was determined as 85.4%.

`CC(C)Oc1nc2c(OC(C)C)cccn2c1C=C(C#N)C(=O)O` [Sample 5, Sodium salt of 3-(2-carboxy-2-cyanovinyl)-2,8-diisopropoxyimidazo[1,2-a]pyridine]: the inhibition in vivo at 20 mg/kg in data set [1] amounted to 94.6%. The LD50 at 240 h in data set [2] was about 220 mg/kg.

As to `CCCCOc1nc2c(C)cccn2c1C=C(C#N)C(=O)O` [Sample 6, Sodium salt of 2-butoxy-3-(2-carboxy-2-cyanovinyl)-8-methylimidazo[1,2-a]pyridine], the inhibition in vivo at 20 mg/kg in data set [1] amounted to 69.8%.

On to `Cc1ccn2c(C=C(C#N)C(=O)O)c(OCC(C)C)nc2c1` [Sample 7, Sodium salt of 3-(2-carboxy-2-cyanovinyl)-2-isobutoxy-7-methylimidazo[1,2-a]pyridine], for which, in data set [1], the inhibition in vivo at 20 mg/kg was determined as 65.8%.

On to `CCC(C)Oc1nc2c(C)cccn2c1C=C(C#N)C(=O)O` (stereo not drawn) [Sample 8, Sodium salt of 3-(2-carboxy-2-cyanovinyl)-8-methyl-2-secbutoxyimidazo[1,2-a]pyridine], for which the inhibition in vivo at 20 mg/kg in data set [1] was determined as 80.4%.

For `CCOc1cccn2c(C=C(C#N)C(=O)O)c(OC(C)CC)nc12` (stereo not drawn) [Sample 9, Sodium salt of 3-(2-carboxy-2-cyanovinyl)-8-ethoxy-2-secbutoxyimidazo[1,2-a]pyridine], the inhibition in vivo at 20 mg/kg in data set [1] was 75.3%.

For the compound `CCC(C)Oc1nc2c(OC(C)C)cccn2c1C=C(C#N)C(=O)O` (stereo not drawn) [Sample 10, Sodium salt of 3-(2-carboxy-2-cyanovinyl)-8-isopropoxy-2-secbutoxyimidazo[1,2-a]pyridine], the inhibition in vivo at 20 mg/kg in data set [1] is 92.5%.

As for `CCCCCCOc1nc2c(C)cccn2c1C=C(C#N)C(=O)O` [Sample 11, Sodium salt of 3-(2-carboxy-2-cyanovinyl)-2-hexyloxy-8-methylimidazo[1,2-a]pyridine], the inhibition in vivo at 20 mg/kg in data set [1] stood at 75.7%.

On to `C=CCCOc1nc2c(C)cccn2c1C=C(C#N)C(=O)O` [Sample 12, Sodium salt of 2-(3-butenyloxy)-3-(2-carboxy-2-cyanovinyl)-8-methylimidazo[1,2-a]pyridine], for which, in data set [1], the inhibition in vivo at 20 mg/kg was found to be 68.9%.

Regarding `Cc1cccn2c(C=C(C#N)C(=O)O)c(OCCCO)nc12` [Sample 13, Sodium salt of 3-(2-carboxy-2-cyanovinyl)-2-(3-hydroxypropoxy)-8-methylimidazo[1,2-a]pyridine], the inhibition in vivo at 20 mg/kg in data set [1] stood at 64.3%.

Regarding `CC(=O)NCCCOc1nc2c(C)cccn2c1C=C(C#N)C(=O)O` [Sample 14, Sodium salt of 2-(3-acetylaminoproxy)-3-(2-carboxy-2-cyanovinyl)-8-methylimidazo[1,2-a]pyridine], the inhibition in vivo at 20 mg/kg in data set [1] turned out to be 74.8%.

As for `Cc1cccn2c(C=C(C#N)C(=O)O)c(OCC3CC3)nc12` [Sample 15, Sodium salt of 3-(2-carboxy-2-cyanovinyl)-2-cyclopropylmethoxy-8-methylimidazo[1,2-a]pyridine], the inhibition in vivo at 20 mg/kg in data set [1] is 61.8%.

In the case of `COCCOc1nc2c(C)cccn2c1C=C(C#N)C(=O)O` [Sample 16, Sodium salt of 3-(2-carboxy-2-cyanovinyl)-2-(2-methoxyethoxy)-8-methylimidazo[1,2-a]pyridine], the inhibition in vivo at 20 mg/kg in data set [1] was 68.9%.

As to `Cc1cccn2c(C=C(C#N)C(=O)O)c(OCCCC#N)nc12` [Sample 17, Sodium salt of 3-(2-carboxy-2-cyanovinyl)-2-(3-cyanoproxy)-8-methylimidazo[1,2-a]pyridine], in data set [1], the inhibition in vivo at 20 mg/kg is 71.3%.

What is called LD50 is the dose expected to kill half of the subjects tested.
